Laboratory results as given in patent publication US20240284792A1, “ORGANIC COMPOUND, LIGHT-EMITTING DEVICE, DISPLAY APPARATUS, AND ELECTRONIC DEVICE” (SEMICONDUCTOR ENERGY LABORATORY CO., LTD., priority 2023, published 2024).
≈ marks a conversion by molar mass, not a printed value.

Experiment: Solubility test (water solubility) by LC-MS analysis
Assay type: physicochemical
Description: In the LC-MS analysis, liquid chromatography (LC) separation was carried out with ACQUITY UPLC manufactured by Waters Corporation, and MS analysis (mass spectrometry) was carried out with Xevo G2 Tof MS manufactured by Waters Corporation. Acquity UPLC BEH C8 (2.1×100 mm, 1.7 μm) was used as a column for the LC separation. Acetonitrile was used for Mobile Phase A and a 0.1% aqueous solution of formic acid was used for Mobile Phase B. The injection amount of the sample was 5.0 μL. Note that in the analysis, the wavelength of a photodiode array detector was set to 330 nm±1 nm.
In a 5-mL sample bottle, 1 mg of SFPy-hpp was put and 2 mL of N,N-dimethylformamide was added thereto. This mixture was irradiated with ultrasonic waves for five minutes. After it was confirmed that the solid was completely dissolved, this solution was diluted by 2.5 times with acetonitrile, whereby the concentration of the solution was adjusted to 200 mg/L. This solution was diluted with acetonitrile, whereby a solution with a concentration of 4 mg/L, a solution with a concentration of 2 mg/L, and a solution with a concentration of 0.2 mg/L were prepared. The prepared solutions were subjected to LC-MS analysis, and the peak area values derived from SFPy-hpp, which were obtained at the respective solution concentrations, were used to form calibration curves.
Next, the water solubility of SFPy-hpp was measured.
In a 5-mL sample bottle, 1 mg of SFPy-hpp was put and 1 mL of water was added thereto. This mixture was irradiated with ultrasonic waves for five minutes. This mixture was filtered through a membrane filter to remove the solid. The obtained solution was subjected to LC-MS analysis.

solubility in 1 mL of water (1 mg compound in 1 mL water, ultrasonic waves five minutes, membrane filtered, LC-MS with calibration curve): 0.00029 mg
solubility at 5 min (thermodynamic from solid, water, from calibration curve and LC-MS signal intensity, read-out: weight fraction of the water solubility): 0.29 µg/mL (≈ 0.546 µM)
water solubility (in words) (water, conclusion from LC-MS solubility test): extremely low water solubility
Compound: c1cc(-c2ccc3c(c2)C2(c4ccccc4-c4ccccc42)c2ccccc2-3)nc(N2CCCN3CCCN=C32)c1 [SFPy-hpp, 1-[6-(9,9′-spirobi[9H-fluoren]-2-yl)pyridin-2-yl]-1,3,4,6,7,8-hexahydro-2H-pyrimido[1,2-a]pyrimidine]
